# In patent US11642314B2, “Mixtures of branched chain keto acids (BCKA) and method for the production of such mixtures” (Evonik Operations GmbH, priority 2018, dated 2023):
# Experiment: Water solubility at 20° C.
# Type: physicochemical
# Details: in water at 20° C.; calcium salts according to b99
row,solubility [mg/mL],Compound
1,24.3,CCC(C)C(=O)C(=O)O (stereo not shown) [Keto isoleucine]
2,11.9 to 12.5,CC(C)CC(=O)C(=O)O [Keto leucine]
3,65 to 70,CC(C)C(=O)C(=O)O [Keto valine]
4,52 to 63,CSCCC(O)C(=O)O (stereo not drawn) [α-hydroxymethionine]
